Reference: PMC7594025, “Synthesis, Docking, 3-D-Qsar, and Biological Assays of Novel Indole Derivatives Targeting Serotonin Transporter, Dopamine D2 Receptor, and Mao-A Enzyme: In the Pursuit for Potential Multitarget Directed Ligands” (Molecules, 2020)
Like-named read-outs stand apart in the source and are kept apart here.

Assays:
SERT = biological target: T1, SERT (Homo sapiens, UniProt P31645); test: SERT competitive binding assay, [3H]-paroxetine, membranes from HEK-293 clonal cell line overexpressing SERT
T1 construct: purchased Perkin-Elmer (Boston, MA, USA) RBHSTM400UA; host or cells: HEK-293 clonal cell line
T1 sequence (P31645 whole entry): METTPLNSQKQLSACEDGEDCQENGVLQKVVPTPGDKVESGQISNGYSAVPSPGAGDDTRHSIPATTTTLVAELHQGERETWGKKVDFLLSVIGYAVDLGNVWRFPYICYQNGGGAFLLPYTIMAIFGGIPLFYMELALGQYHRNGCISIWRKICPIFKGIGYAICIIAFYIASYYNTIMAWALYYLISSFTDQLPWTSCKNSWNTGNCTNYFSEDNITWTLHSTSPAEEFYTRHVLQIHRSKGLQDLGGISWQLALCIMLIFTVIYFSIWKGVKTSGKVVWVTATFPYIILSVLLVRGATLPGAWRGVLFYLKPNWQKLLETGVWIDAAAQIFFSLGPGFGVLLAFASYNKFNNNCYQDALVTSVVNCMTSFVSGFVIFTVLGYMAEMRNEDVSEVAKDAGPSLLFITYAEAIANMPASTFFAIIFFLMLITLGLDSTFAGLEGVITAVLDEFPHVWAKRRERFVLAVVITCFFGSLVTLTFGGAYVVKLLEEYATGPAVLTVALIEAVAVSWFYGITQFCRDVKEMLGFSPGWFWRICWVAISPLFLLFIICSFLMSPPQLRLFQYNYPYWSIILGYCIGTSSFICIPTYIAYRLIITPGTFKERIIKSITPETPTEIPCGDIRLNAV
Description: To determine the binding of all compounds at SERT, competitive binding assays were performed according to previously reported procedures with some modifications. […] Control curve was performed with fluoxetine in the same experimental conditions. Non-specific binding was determined with 10 µM fluoxetine.
The IC50 and Ki values correspond to the results of three independent experiments, each in triplicate. All data are expressed as the mean ± SEM.

D2 receptor = biological target: T2, D2 receptor (Homo sapiens, UniProt P14416); test: D2 receptor competitive binding assay, [3H]-methylspiperone, membranes from CHO-K1 clonal cell line overexpressing D2 receptor; conditions: for Ki: 0.5 nM [3H]-methylspiperone, 2 h at 27 °C, mean ± SEM of three experiments, each in triplicate
T2 construct: purchased Perkin-Elmer (Boston, MA, USA) RBHD2CM400UA; host or cells: CHO-K1 clonal cell line
T2 sequence (P14416 whole entry): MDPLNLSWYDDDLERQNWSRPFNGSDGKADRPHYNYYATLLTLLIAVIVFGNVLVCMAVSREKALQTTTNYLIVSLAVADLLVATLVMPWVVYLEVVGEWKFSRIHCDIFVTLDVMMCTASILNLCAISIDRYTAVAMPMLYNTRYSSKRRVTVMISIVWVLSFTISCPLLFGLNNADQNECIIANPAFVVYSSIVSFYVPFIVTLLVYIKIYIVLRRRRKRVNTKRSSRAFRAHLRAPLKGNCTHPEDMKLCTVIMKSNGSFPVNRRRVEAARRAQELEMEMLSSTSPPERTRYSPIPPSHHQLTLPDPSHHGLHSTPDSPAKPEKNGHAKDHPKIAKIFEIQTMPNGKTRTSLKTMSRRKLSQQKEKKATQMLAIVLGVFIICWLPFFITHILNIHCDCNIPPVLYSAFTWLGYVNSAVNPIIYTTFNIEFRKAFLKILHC
Description: To determine the binding of all compounds at D2 receptor, competitive binding assays were performed according to provider indications with some modifications. […] Radioactivity was counted as described before.

rat MAO-A = biological target: T3, rat MAO-A (Rattus norvegicus, UniProt P21396); test: MAO-A inhibition, crude rat brain mitochondrial suspension, serotonin substrate, HPLC-ED; format: biochemical; conditions: 100 µM compound; serotonin 100 µM as substrate
T3 construct: using a crude rat brain mitochondrial suspension as a source of enzyme; from tissue; host or cells: rat brain (crude mitochondrial suspension)
T3 sequence (P21396 1-526): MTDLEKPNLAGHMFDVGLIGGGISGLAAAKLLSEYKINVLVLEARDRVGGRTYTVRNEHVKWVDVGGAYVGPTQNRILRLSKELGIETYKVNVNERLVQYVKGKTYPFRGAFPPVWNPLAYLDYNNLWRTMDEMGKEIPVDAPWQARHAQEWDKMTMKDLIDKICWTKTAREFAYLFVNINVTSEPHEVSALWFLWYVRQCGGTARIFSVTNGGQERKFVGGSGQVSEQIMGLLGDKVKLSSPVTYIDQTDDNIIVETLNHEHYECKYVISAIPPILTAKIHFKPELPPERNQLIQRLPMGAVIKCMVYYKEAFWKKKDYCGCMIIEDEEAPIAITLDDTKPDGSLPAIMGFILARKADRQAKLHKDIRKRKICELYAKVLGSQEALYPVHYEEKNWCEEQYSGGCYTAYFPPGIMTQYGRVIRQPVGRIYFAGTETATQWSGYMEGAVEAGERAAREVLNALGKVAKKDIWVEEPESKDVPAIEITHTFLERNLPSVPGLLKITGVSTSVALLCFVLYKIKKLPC
Description: The effects of the compounds on rat MAO-A activity were studied following a previously reported methodology, using a crude rat brain mitochondrial suspension as a source of enzyme. Serotonin (100 µM) was used as the selective substrate for MAO-A. This compound and its metabolite were detected by HPLC with electrochemical detection. As an exploratory evaluation, the percentage of MAO-A inhibition in the presence of 100 µM of the different compounds was determined, with the idea of evaluating in detail those compounds showing an inhibitory activity in the range of 70–100%.

[1] = 2 nM [3H]-paroxetine, 1 h at 27 °C, mean ± SEM of three experiments, each in triplicate, read-out: Ki SERT
[2] = SERT, experimental values used for CoMFA/CoMSIA (Table S3), read-out: Exp. pKi (converted)

SMILES	Ki (SERT; [1])	Ki (D2 receptor)	inhibition at 100 µM (rat MAO-A)	melting point	D2/SERT ratio (D2 receptor; ratio of Ki at D2 receptor to Ki at SERT)	Ki (SERT; [2])
O=C(CN1CCN(CCCc2c[nH]c3ccccc23)CC1)N1CCOc2ccc(Br)cc21 [Compound 7e, 1-(6-Bromo-2,3-dihydro-benzo[b][1,4]oxazin-4-yl)-2-{4-[3-(1H-3-indolyl)-propyl]-1-piperazinyl} ethanamide]	36.6 ± 0.55 nM	910 ± 263 nM	38%	132.7 to 134.1 °C		
O=C(CN1CCN(CCCc2c[nH]c3ccc(Br)cc23)CC1)N1CCOc2cc(F)ccc21 [Compound 7n, 1-(7-Fluoro-2,3-dihydro-benzo[b][1,4]oxazin-4-yl)-2-{4-[3-(5-bromo-1H-3-indolyl)-propyl]-1-piperazinyl} ethanamide]	84.4 nM	307 ± 6 nM	23%	96.1 to 98.1 °C	3.6	
O=C(CN1CCN(CCCc2c[nH]c3ccc(F)cc23)CC1)N1CCOc2ccc(Br)cc21 [Compound 7k, 1-(6-Bromo-2,3-dihydro-benzo[b][1,4]oxazin-4-yl)-2-{4-[3-(5-fluoro-1H-3-indolyl)-propyl]-1-piperazinyl} ethanamide]	5.63 ± 0.82 nM	1040 ± 232 nM	20%	102.8 to 103.9 °C		5.62 nM
O=C(CN1CCN(CCCc2c[nH]c3ccccc23)CC1)N1CCOc2ccc(F)cc21 [Compound 7c, 1-(6-Fluoro-2,3-dihydro-benzo[b][1,4]oxazin-4-yl)-2-{4-[3-(1H-3-indolyl)-propyl]-1-piperazinyl} ethanamide]	68.8 ± 1.02 nM	2390 ± 163 nM	40%	123.8 to 125.1 °C		
O=C(CN1CCN(CCCc2c[nH]c3ccccc23)CC1)N1CCOc2ccc(Cl)cc21 [Compound 7d, 1-(6-Chloro-2,3-dihydro-benzo[b][1,4]oxazin-4-yl)-2-{4-[3-(1H-3-indolyl)-propyl]-1-piperazinyl} ethanamide]	81.4 ± 4.97 nM	1260 ± 182 nM	18%	135.3 to 136.1 °C		
O=C(CN1CCN(CCCc2c[nH]c3ccc(F)cc23)CC1)N1CCOc2ccccc21 [Compound 7g, 1-(2,3-Dihydro-benzo[b][1,4]oxazin-4-yl)-2-{4-[3-(5-fluoro-1H-3-indolyl)-propyl]-1-piperazinyl} ethanamide]	9.63 ± 0.31 nM	2320 ± 64 nM	41%	168.4 to 171.3 °C		
O=C(CN1CCN(CCCc2c[nH]c3ccc(F)cc23)CC1)N1CCOc2cc(F)ccc21 [Compound 7h, 1-(7-Fluoro-2,3-dihydro-benzo[b][1,4]oxazin-4-yl)-2-{4-[3-(5-fluoro-1H-3-indolyl)-propyl]-1-piperazinyl} ethanamide]	7.61 ± 0.02 nM	2320 ± 163 nM	0%	168.1 to 169.9 °C		
COc1ccc2c(c1)N(C(=O)CN1CCN(CCCc3c[nH]c4ccccc34)CC1)CCO2 [Compound 7f, 1-(6-Methoxy-2,3-dihydro-benzo[b][1,4]oxazin-4-yl)-2-{4-[3-(1H-3-indolyl)-propyl]-1-piperazinyl} ethanamide]	412 ± 57.9 nM	4410 ± 647 nM	58%	123.6 to 125.1 °C		
O=C(CN1CCN(CCCc2c[nH]c3ccccc23)CC1)N1CCOc2cc(F)ccc21 [Compound 7b, 1-(7-Fluoro-2,3-dihydro-benzo[b][1,4]oxazin-4-yl)-2-{4-[3-(1H-3-indolyl)-propyl]-1-piperazinyl} ethanamide]	181 ± 20 nM	4740 ± 131 nM	43%	124 to 125.3 °C		
O=C(CN1CCN(CCCc2c[nH]c3ccc(F)cc23)CC1)N1CCOc2ccc(Cl)cc21 [Compound 7j, 1-(6-Chloro-2,3-dihydro-benzo[b][1,4]oxazin-4-yl)-2-{4-[3-(5-fluoro-1H-3-indolyl)-propyl]-1-piperazinyl} ethanamide]	12.3 ± 2.31 nM	902 ± 4 nM	20%	120.5 to 122.8 °C		
O=C(CN1CCN(CCCc2c[nH]c3ccc(Br)cc23)CC1)N1CCOc2ccccc21 [Compound 7m, 1-(2,3-Dihydro-benzo[b][1,4]oxazin-4-yl)-2-{4-[3-(5-bromo-1H-3-indolyl)-propyl]-1-piperazinyl} ethanamide]	50.2 ± 2.47 nM	593 ± 62 nM	30%	90.5 to 92.4 °C		50.1 nM
COc1ccc2c(c1)N(C(=O)CN1CCN(CCCc3c[nH]c4ccc(F)cc34)CC1)CCO2 [Compound 7l, 1-(6-Methoxy-2,3-dihydro-benzo[b][1,4]oxazin-4-yl)-2-{4-[3-(5-fluoro-1H-3-indolyl)-propyl]-1-piperazinyl} ethanamide]	12.6 ± 1.52 nM	3320 ± 256 nM	52%	94.5 to 97.3 °C		

Other lines, results leading:

Ki (SERT; [1])	Ki (D2 receptor)	inhibition at 100 µM (rat MAO-A)	melting point	D2/SERT ratio (D2 receptor; ratio of Ki at D2 receptor to Ki at SERT)	Ki (SERT; [2])	SMILES
23.8 ± 0.46 nM	3100 ± 42 nM	42%	92.2 to 93.9 °C			O=C(CN1CCN(CCCc2c[nH]c3ccc(F)cc23)CC1)Nc1cc(C(=O)NCCN2CCOCC2)ccc1F [Compound 13b, 4-Fluoro-3-(2-{4-[3-(5-fluor-1H-3-indolyl)-propyl]-1-piperazinyl}-acetylamino)-N-(2-morpholin-4-yl-ethyl) Benzamide]
58.8 ± 1.14 nM	1830 ± 33 nM	39%	85.2 to 86.8 °C			O=C(CN1CCN(CCCc2c[nH]c3ccc(Br)cc23)CC1)Nc1cc(C(=O)NCCN2CCOCC2)ccc1F [Compound 13f, 4-Fluoro-3-(2-{4-[3-(5-bromo-1H-3-indolyl)-propyl]-1-piperazinyl}-acetylamino)-N-(2-morpholin-4-yl-ethyl) Benzamide]
200 ± 14.5 nM	4700 ± 168 nM	9.4%	73.8 to 74.7 °C			O=C(CN1CCN(CCCc2c[nH]c3ccc(Br)cc23)CC1)Nc1ccc(F)cc1C(=O)NCCN1CCOCC1 [Compound 13h, 5-Fluoro-2-(2-{4-[3-(5-bromo-1H-3-indolyl)-propyl]-1-piperazinyl}-acetylamino)-N-(2-morpholin-4-yl-ethyl) Benzamide]
26.8 ± 0.91 nM	4170 ± 335 nM	34%	69.7 to 71.5 °C			O=C(CN1CCN(CCCc2c[nH]c3ccccc23)CC1)Nc1ccc(F)c(C(=O)NCCN2CCOCC2)c1 [Compound 13k, 2-Fluoro-5-(2-{4-[3-(1H-3-indolyl)-propyl]-1-piperazinyl}-acetylamino)-N-(2-morpholin-4-yl-ethyl) Benzamide]
52.2 ± 3.24 nM	2000 ± 34 nM	34%	68.1 to 69.6 °C			O=C(CN1CCN(CCCc2c[nH]c3ccccc23)CC1)Nc1ccc(F)cc1C(=O)NCCN1CCOCC1 [Compound 13l, 5-Fluoro-2-(2-{4-[3-(1H-3-indolyl)-propyl]-1-piperazinyl}-acetylamino)-N-(2-morpholin-4-yl-ethyl) Benzamide]
223 ± 16.4 nM	5619 ± 31 nM	39%	92.1 to 93.8 °C			O=C(CN1CCN(CCCc2c[nH]c3ccc(Br)cc23)CC1)Nc1cc(F)ccc1C(=O)NCCN1CCOCC1 [Compound 13e, 4-Fluoro-2-(2-{4-[3-(5-bromo-1H-3-indolyl)-propyl]-1-piperazinyl}-acetylamino)-N-(2-morpholin-4-yl-ethyl) Benzamide]
6.83 ± 0.19 nM	593 ± 30.2 nM	28%	91.8 to 93.2 °C			O=C(CN1CCN(CCCc2c[nH]c3ccc(F)cc23)CC1)Nc1ccc(F)c(C(=O)NCCN2CCOCC2)c1 [Compound 13c, 2-Fluoro-5-(2-{4-[3-(5-fluor-1H-3-indolyl)-propyl]-1-piperazinyl}-acetylamino)-N-(2-morpholin-4-yl-ethyl) Benzamide]
